From the supplement of paper PMC13380429

How the values were obtained:
Details in all cases: 72 h
Caco-2 [1] = test: cell viability relative to DMSO; higher = less toxic
Calu-3 [2] = test: as above
U2OS [3] = test: as above
Vero E6 [4] = test: as above
HepG2 [5] = test: as above
Caco-2 [6] = test: relative viability EC50 (midpoint between 100% and the lowest measured viability); higher = less toxic
Calu-3 [7] = test: as above
U2OS [8] = test: as above
Vero E6 [9] = test: as above
HepG2 [10] = test: as above
Caco-2 [11] = test: drug sensitivity score (DSS) for viability; higher = more toxic; extreme values may be limits of the assay
Calu-3 [12] = test: as above
U2OS [13] = test: as above
Vero E6 [14] = test: as above
HepG2 [15] = test: as above

| SMILES | cell viability (Caco-2 [1]; 1 nM) [%] | cell viability (Caco-2 [1]; 10 nM) [%] | cell viability (Caco-2 [1]; 100 nM) [%] | cell viability (Caco-2 [1]; 1000 nM) [%] | cell viability (Caco-2 [1]; 10000 nM) [%] | cell viability (Calu-3 [2]; 1 nM) [%] | cell viability (Calu-3 [2]; 10 nM) [%] | cell viability (Calu-3 [2]; 100 nM) [%] | cell viability (Calu-3 [2]; 1000 nM) [%] | cell viability (Calu-3 [2]; 10000 nM) [%] | cell viability (U2OS [3]; 1 nM) [%] | cell viability (U2OS [3]; 10 nM) [%] | cell viability (U2OS [3]; 100 nM) [%] | cell viability (U2OS [3]; 1000 nM) [%] | cell viability (U2OS [3]; 10000 nM) [%] | cell viability (Vero E6 [4]; 1 nM) [%] | cell viability (Vero E6 [4]; 10 nM) [%] | cell viability (Vero E6 [4]; 100 nM) [%] | cell viability (Vero E6 [4]; 1000 nM) [%] | cell viability (Vero E6 [4]; 10000 nM) [%] | cell viability (HepG2 [5]; 1 nM) [%] | cell viability (HepG2 [5]; 10 nM) [%] | cell viability (HepG2 [5]; 100 nM) [%] | cell viability (HepG2 [5]; 1000 nM) [%] | cell viability (HepG2 [5]; 10000 nM) [%] | relative viability EC50 (Caco-2 [6]) [µM] | relative viability EC50 (Calu-3 [7]) [µM] | relative viability EC50 (U2OS [8]) [µM] | relative viability EC50 (Vero E6 [9]) [µM] | relative viability EC50 (HepG2 [10]) [µM] | drug sensitivity score (Caco-2 [11]) | drug sensitivity score (Calu-3 [12]) | drug sensitivity score (U2OS [13]) | drug sensitivity score (Vero E6 [14]) | drug sensitivity score (HepG2 [15]) |
| --- | --- | --- | --- | --- | --- | --- | --- | --- | --- | --- | --- | --- | --- | --- | --- | --- | --- | --- | --- | --- | --- | --- | --- | --- | --- | --- | --- | --- | --- | --- | --- | --- | --- | --- | --- |
| Cc1cc(O)cc(C)c1Cl [chloroxylenol] | 99.8 | 101 | 93.2 | 92 | 89.3 | 104 | 108 | 94.7 | 105 | 95.5 | 102 | 106 | 97.3 | 99.8 | 95.4 | 101 | 101 | 96.9 | 99.1 | 104 | 90.6 | 92 | 105 | 104 | 94 | > 10 | > 10 | > 10 | > 10 | > 10 | 0.3 | 0 | 0 | 0 | 0 |
| COCC(=O)Nc1c(I)c(C(=O)NCC(O)CO)c(I)c(C(=O)N(C)CC(O)CO)c1I (stereo not given) [iopromide] | 93.6 | 101 | 93.7 | 98.4 | 102 | 110 | 104 | 93.1 | 94.9 | 96.1 | 99 | 101 | 99.1 | 100 | 95.1 | 100 | 104 | 93.9 | 94.9 | 104 | 98 | 89.1 | 89.1 | 85.2 | 95.6 | > 10 | > 10 | > 10 | > 10 | > 10 | 0 | 0 | 0 | 0 | 0 |
| CC(OC(=O)NCC1(CC(=O)O)CCCCC1)OC(=O)C(C)C (stereo not given) [gabapentin-enacarbil] | 105 | 87.2 | 106 | 110 | 104 | 103 | 96.3 | 106 | 104 | 89 | 101 | 96.5 | 102 | 94 | 102 | 83.4 | 97.8 | 84.2 | 107 | 106 | 101 | 93.8 | 94.7 | 90.1 | 89.4 | > 10 | > 10 | > 10 | > 10 | > 10 | 0 | 0 | 0 | 0 | 0 |
| C=Cc1c(C)c2cc3nc(c(CC(=O)O)c4[n-]c(cc5nc(cc1[n-]2)C(C)=C5CC)c(C)c4C(=O)O)[C@@H](CCC(=O)O)[C@@H]3C.[Cu+2] [chlorophyllin-copper] | 88.2 | 84 | 98.7 | 95.8 | 89.4 | 88.2 | 85.4 | 104 | 104 | 75.4 | 94.9 | 97.2 | 98.7 | 91.9 | 88.6 | 103 | 97.3 | 95.2 | 102 | 85.9 | 89.6 | 104 | 82.3 | 105 | 88.8 | > 10 | > 10 | > 10 | > 10 | > 10 | 0 | 0.7 | 0 | 0.1 | 0 |
| CNc1nc(C)nc(N[C@H]2CCC[C@@H](C(=O)NCc3ccc(C#N)cc3C(F)(F)F)C2)n1 | 87.8 | 102 | 91.8 | 98.6 | 95.1 | 93.9 | 98.1 | 97 | 93.2 | 89.4 | 97 | 100 | 97.9 | 107 | 99.9 | 99.3 | 96.8 | 100 | 96.8 | 108 | 99.4 | 98.7 | 103 | 94.7 | 111 | > 10 | > 10 | > 10 | > 10 | > 10 | 0 | 0 | 0 | 0 | 0 |
| Oc1ccnc2cc(Cl)ccc12 [chloroxoquinoline] | 98.7 | 96.3 | 94.7 | 90.8 | 89.9 | 87.2 | 95.4 | 92.9 | 105 | 92.2 | 98.5 | 99.7 | 95.5 | 103 | 95.5 | 102 | 90.9 | 101 | 96.1 | 99.5 | 104 | 96.3 | 94.6 | 92.4 | 105 | > 10 | > 10 | > 10 | > 10 | > 10 | 0 | 0 | 0 | 0 | 0 |
| CC1(C)CC(=O)C(C2C3=C(CC(C)(C)CC3=O)Oc3ccccc32)C(=O)C1 (stereo not given) | 99.2 | 93.7 | 96.5 | 95.8 | 99.2 | 93 | 98.1 | 98 | 101 | 109 | 96.7 | 101 | 95 | 98.2 | 101 | 102 | 98 | 103 | 102 | 100 | 92.1 | 103 | 97.5 | 96.8 | 102 | > 10 | > 10 | > 10 | > 10 | > 10 | 0 | 0 | 0 | 0 | 0 |
| N=C(N)Nc1ccc(C(=O)Oc2ccc3cc(C(=N)N)ccc3c2)cc1 [nafamostat] | 101 | 100 | 98.8 | 92.4 | 107 | 98.3 | 103 | 107 | 103 | 99.4 | 102 | 99.4 | 102 | 97.6 | 102 | 99.7 | 103 | 104 | 102 | 97 | 96.5 | 108 | 104 | 108 | 77.1 | > 10 | > 10 | > 10 | > 10 | > 10 | 0 | 0 | 0 | 0 | 0.5 |
| CC(C(=O)O)c1ccc2c(c1)Cc1ccccc1-2 (stereo not given) [cicloprofen] | 96.8 | 97.9 | 99.9 | 102 | 107 | 95.4 | 103 | 97.6 | 93.7 | 90.5 | 96.9 | 98 | 94.4 | 98.5 | 106 | 104 | 101 | 101 | 93.8 | 101 | 101 | 93.7 | 106 | 95.7 | 112 | > 10 | > 10 | > 10 | > 10 | > 10 | 0 | 0 | 0 | 0 | 0 |
| CCC(=N\O)/C(C)=C/c1ccc(F)cc1 | 93.9 | 91.4 | 89.5 | 96.4 | 97.5 | 104 | 98.5 | 95.9 | 107 | 95 | 98.4 | 100 | 98.4 | 103 | 95 | 99.1 | 99.2 | 102 | 98.5 | 98.8 | 91.9 | 107 | 102 | 102 | 91 | > 10 | > 10 | > 10 | > 10 | > 10 | 0 | 0 | 0 | 0 | 0 |
| O=C(OCCN1CCOCC1)C1(c2ccccc2)CCCCC1 [PRE-084] | 108 | 102 | 93.9 | 90.8 | 89.1 | 101 | 107 | 97.2 | 103 | 93 | 99.3 | 100 | 96.5 | 107 | 97.4 | 100 | 99.7 | 106 | 102 | 105 | 106 | 102 | 95.6 | 108 | 100 | > 10 | > 10 | > 10 | > 10 | > 10 | 0.4 | 0 | 0 | 0 | 0 |
| c1cc(CN2CCCNCCNCCCNCC2)ccc1CN1CCCNCCNCCCNCC1 [plerixafor] | 101 | 96.1 | 97.5 | 101 | 95.2 | 90.7 | 104 | 97.3 | 94.4 | 105 | 101 | 99.8 | 97.9 | 97.2 | 98.1 | 104 | 99.1 | 104 | 101 | 100 | 92.9 | 104 | 88.4 | 106 | 96.5 | > 10 | > 10 | > 10 | > 10 | > 10 | 0 | 0 | 0 | 0 | 0 |
| CCOC(=O)Nc1nc2ccccc2[nH]1 [lobendazole] | 97.9 | 91.6 | 96.4 | 109 | 95.5 | 100 | 106 | 102 | 98.4 | 95.9 | 97.1 | 96.1 | 98.2 | 94.8 | 99.7 | 96.9 | 101 | 87.6 | 103 | 103 | 94.6 | 113 | 104 | 111 | 98.9 | > 10 | > 10 | > 10 | > 10 | > 10 | 0 | 0 | 0 | 0 | 0 |
| Oc1cc(O)c2c(c1)O[C@H](c1ccc(O)c(O)c1)[C@@H](O)C2 [cianidanol] | 89.8 | 89.6 | 92.6 | 90.4 | 92.6 | 96.9 | 101 | 97.4 | 107 | 101 | 93.9 | 96.2 | 95.6 | 98.5 | 100 | 98 | 88.5 | 103 | 94.5 | 113 | 100 | 99.8 | 84.6 | 102 | 109 | > 10 | > 10 | > 10 | > 10 | > 10 | 0 | 0 | 0 | 0 | 0 |
| CN(C)CCC=C1c2ccccc2C=Cc2ccccc21 [cyclobenzaprine] | 102 | 108 | 101 | 98.8 | 114 | 98.8 | 99.3 | 94.8 | 99 | 101 | 102 | 98.4 | 103 | 101 | 104 | 100 | 99.6 | 92.2 | 107 | 101 | 111 | 97.9 | 104 | 113 | 103 | > 10 | > 10 | > 10 | > 10 | > 10 | 0 | 0 | 0 | 0 | 0 |
